Values quoted from earlier work in US20160101114A1, “ARTICLES AND METHODS FOR PREVENTING AND TREATING DERMATOLOGIC ADVERSE EVENTS” (SLOAN-KETTERING INSTITUTE FOR CANCER RESEARCH, priority 2013, published 2016).

Settings: cancer therapies with multikinase inhibitors

| Molecule | all grade incidence of hand foot syndrome |
| --- | --- |
| CNC(=O)c1ccccc1Sc1ccc2c(/C=C/c3ccccn3)n[nH]c2c1 [axitinib] | 29% |
| COc1cc2nccc(Oc3ccc(NC(=O)C4(C(=O)Nc5ccc(F)cc5)CC4)cc3)c2cc1OC [cabozantinib] | 50% |
| Cc1ccc(Nc2nccc(N(C)c3ccc4c(C)n(C)nc4c3)n2)cc1S(N)(=O)=O [pazopanib] | 5% |
| CNC(=O)c1cc(Oc2ccc(NC(=O)Nc3ccc(Cl)c(C(F)(F)F)c3)c(F)c2)ccn1 [regorafenib] | 46% |
| CNC(=O)c1cc(Oc2ccc(NC(=O)Nc3ccc(Cl)c(C(F)(F)F)c3)cc2)ccn1 [sorafenib] | 60% |
| CCN(CC)CCNC(=O)c1c(C)[nH]c(/C=C2\C(=O)Nc3ccc(F)cc32)c1C [sunitinib] | 30% |
| COc1cc2c(Nc3ccc(Br)cc3F)ncnc2cc1OCC1CCN(C)CC1 [vandetanib] | 5% |
| ziv-aflibercept | 2% |
